Where two headings read alike, the source gives them in different places.
Legend:
A549 cells = experiment: Proliferation Assay (A549 viability, Cell Titer Fluor, 72 hours); format: cell-based
In short: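 Cell Titer Fluor fluorescence after 72 h compound treatment (0.5% DMSO, 37 °C, 5% CO2) of A549 cells plated 24 h earlier at 1000/well. Four-parameter logistic fitting gave IC50.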

[1] = biological target: purified recombinant human GAC (GLS1) (Homo sapiens (Human), UniProt O94925); experiment: GLS1 Enzymatic Activity Assay (dual-coupled enzymatic assay, resorufin/Amplex UltraRed readout); format: biochemical;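 note: glutamate from GAC coupled via glutamate oxidase and peroxidase to resorufin, read as fluorescence (ex 530, em 590 nm) kinetically or at 20 min, four-parameter logistic IC50 fit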
Sequence of purified recombinant human GAC (GLS1) (O94925 other isoform, or with tags, fused parts or gaps): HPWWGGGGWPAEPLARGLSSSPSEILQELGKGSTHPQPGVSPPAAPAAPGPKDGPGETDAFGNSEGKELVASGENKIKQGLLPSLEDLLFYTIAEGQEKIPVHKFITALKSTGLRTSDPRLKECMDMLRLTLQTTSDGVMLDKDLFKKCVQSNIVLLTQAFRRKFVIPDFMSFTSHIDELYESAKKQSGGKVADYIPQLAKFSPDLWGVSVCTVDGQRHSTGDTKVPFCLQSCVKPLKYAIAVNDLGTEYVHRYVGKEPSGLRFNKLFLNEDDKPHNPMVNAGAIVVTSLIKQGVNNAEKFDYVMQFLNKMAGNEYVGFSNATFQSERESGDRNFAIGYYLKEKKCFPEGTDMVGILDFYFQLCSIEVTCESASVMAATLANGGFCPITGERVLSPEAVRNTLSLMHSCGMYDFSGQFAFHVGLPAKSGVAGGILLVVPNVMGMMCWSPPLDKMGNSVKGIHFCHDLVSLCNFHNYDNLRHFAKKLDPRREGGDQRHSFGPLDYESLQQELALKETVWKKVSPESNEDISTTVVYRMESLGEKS

| Structure (SMILES) | EC50 (A549 cells; Homo sapiens, A549, 72 h) [µM] | IC50 [1] [µM] | EC50 (A549 cells) [µM] | EC50 (A549 cells; Homo sapiens) [µM] |
| --- | --- | --- | --- | --- |
| O=C(Cc1cc(OC(F)(F)F)ccc1F)Nc1nnc(CCC(F)Cn2cc(C(=O)NCc3cccnc3)nn2)s1 (stereo not drawn) [Example 218, 1-(2-fluoro-4-(5-(2-(2-fluoro-5-(trifluoromethoxy)phenyl)acetamido)-1,3,4-thiadiazol-2-yl)butyl)-N-(pyridin-3-ylmethyl)-1H-1,2,3-triazole-4-carboxamide] | < 0.1 | < 0.1 | – | – |
| COc1ccc(CNC(=O)c2cn(CC(F)CCc3nnc(NC(=O)Cc4cc(OC(F)(F)F)ccc4F)s3)nn2)cn1 (stereo not drawn) [Example 219, 1-(2-fluoro-4-(5-(2-(2-fluoro-5-(trifluoromethoxy)phenyl)acetamido)-1,3,4-thiadiazol-2-yl)butyl)-N-((6-methoxypyridin-3-yl)methyl)-1H-1,2,3-triazole-4-carboxamide] | < 0.1 | < 0.1 | – | – |
| CNC(=O)c1cn(CCCCc2ccc(NC(=O)CN3CCN(c4cccc(OC(F)(F)F)c4)CC3=O)nn2)nn1 [Example 227, N-methyl-1-(4-(6-(2-(2-oxo-4-(3-(trifluoromethoxy)phenyl)piperazin-1-yl)acetamido)pyridazin-3-yl)butyl)-1H-1,2,3-triazole-4-carboxamide] | < 0.1 | < 0.1 | – | – |
| CNC(=O)c1cn(CCCCc2ccc(NC(=O)CN3CCN(c4cccc(OC(F)(F)F)c4)CC3)nn2)nn1 [Example 228, N-methyl-1-(4-(6-(2-(4-(3-(trifluoromethoxy)phenyl)piperazin-1-yl)acetamido)pyridazin-3-yl)butyl)-1H-1,2,3-triazole-4-carboxamide] | < 0.1 | < 0.1 | – | – |
| CNC(=O)c1cn(CCCCc2ccc(NC(=O)CN3CCN(c4ccc(OC(F)(F)F)cc4)CC3)nn2)nn1 [Example 232, N-methyl-1-(4-(6-(2-(4-(4-(trifluoromethoxy)phenyl)piperazin-1-yl)acetamido)pyridazin-3-yl)butyl)-1H-1,2,3-triazole-4-carboxamide] | < 0.1 | < 0.1 | – | – |
| CNC(=O)c1cn(CCCCc2ccc(NC(=O)Cc3cccc(N(C)C)c3)nn2)nn1 [Example 237, 1-(4-(6-(2-(3-(dimethylamino)phenyl)acetamido)pyridazin-3-yl)butyl)-N-methyl-1H-1,2,3-triazole-4-carboxamide] | 0.1 to 0.5 | < 0.1 | – | – |
| O=C(Cc1ccccn1)Nc1nnc(CC[C@H](F)Cn2cc(C(=O)NCc3cc(C(F)(F)F)ccn3)nn2)s1 [Example 238, (S)-1-(2-fluoro-4-(5-(2-(pyridin-2-yl)acetamido)-1,3,4-thiadiazol-2-yl)butyl)-N-((4-(trifluoromethyl)pyridin-2-yl)methyl)-1H-1,2,3-triazole-4-carboxamide] | 0.1 to 0.5 | < 0.1 | – | – |
| CNC(=O)c1cn(C[C@@H](F)CCc2nnc(NC(=O)Cc3cccc(OC(F)(F)F)c3)s2)nn1 [Example 239, (S)-1-(2-fluoro-4-(5-(2-(3-(trifluoromethoxy)phenyl)acetamido)-1,3,4-thiadiazol-2-yl)butyl)-N-methyl-1H-1,2,3-triazole-4-carboxamide] | – | < 0.1 | 0.1 to 0.5 | – |
| CNC(=O)c1cn(C[C@H](F)CCc2nnc(NC(=O)Cc3cccc(OC(F)(F)F)c3)s2)nn1 [Example 240, (R)-1-(2-fluoro-4-(5-(2-(3-(trifluoromethoxy)phenyl)acetamido)-1,3,4-thiadiazol-2-yl)butyl)-N-methyl-1H-1,2,3-triazole-4-carboxamide] | < 0.1 | < 0.1 | – | – |
| CNC(=O)c1cn(CCCCc2ccc(NC(=O)OC3CCCCC3)nn2)nn1 [Example 243, cyclohexyl (6-(4-(4-(methylcarbamoyl)-1H-1,2,3-triazol-1-yl)butyl)pyridazin-3-yl)carbamate] | – | 0.1 to 0.5 | – | 0.1 to 0.5 |
| CNC(=O)c1cn(CC(F)CCc2ccc(NC(=O)Cc3cncc(OC4CC(F)(F)C4)c3)nn2)nn1 (stereo not drawn) [Example 245, 1-(4-(6-(2-(5-(3,3-difluorocyclobutoxy)pyridin-3-yl)acetamido)pyridazin-3-yl)-2-fluorobutyl)-N-methyl-1H-1,2,3-triazole-4-carboxamide] | < 0.1 | < 0.1 | – | – |
| O=C(Cc1cc(-c2cccc(OC(F)(F)F)c2)ccn1)Nc1ccc(CCCCn2cc(C(=O)NCCO)nn2)nn1 [Example 246, N-(2-hydroxyethyl)-1-(4-(6-(2-(4-(3-(trifluoromethoxy)phenyl)pyridin-2-yl)acetamido)pyridazin-3-yl)butyl)-1H-1,2,3-triazole-4-carboxamide] | < 0.1 | < 0.1 | – | – |
| CNC(=O)c1cn(CCCCc2ccc(NC(=O)CN3CCN(Cc4cccc(OC(F)(F)F)c4)CC3=O)nn2)nn1 [Example 247, N-methyl-1-(4-(6-(2-(2-oxo-4-(3-(trifluoromethoxy)benzyl)piperazin-1-yl)acetamido)pyridazin-3-yl)butyl)-1H-1,2,3-triazole-4-carboxamide] | < 0.1 | < 0.1 | – | – |
| CNC(=O)c1cn(CCCCc2ccc(NC(=O)CN3CCN(c4ccccc4OC(F)(F)F)CC3=O)nn2)nn1 [Example 249, N-methyl-1-(4-(6-(2-(2-oxo-4-(2-(trifluoromethoxy)phenyl)piperazin-1-yl)acetamido)pyridazin-3-yl)butyl)-1H-1,2,3-triazole-4-carboxamide] | < 0.1 | < 0.1 | – | – |
| O=C(Cc1ccccn1)Nc1nnc(CC[C@@H](F)Cn2cc(C(=O)NCc3cc(C(F)(F)F)ccn3)nn2)s1 [Example 250, (R)-1-(2-fluoro-4-(5-(2-(pyridin-2-yl)acetamido)-1,3,4-thiadiazol-2-yl)butyl)-N-((4-(trifluoromethyl)pyridin-2-yl)methyl)-1H-1,2,3-triazole-4-carboxamide] | – | < 0.1 | – | < 0.1 |
| CNC(=O)c1cn(CC(F)CCc2ccc(NC(=O)Cc3cc(OC4CCC4)ccn3)nn2)nn1 (stereo not drawn) [Example 251, 1-(4-(6-(2-(4-cyclobutoxypyridin-2-yl)acetamido)pyridazin-3-yl)-2-fluorobutyl)-N-methyl-1H-1,2,3-triazole-4-carboxamide 2,2,2-trifluoroacetate] | < 0.1 | < 0.1 | – | – |

Continued, in another order:

| EC50 (A549 cells; Homo sapiens, A549, 72 h) [µM] | IC50 [1] [µM] | EC50 (A549 cells) [µM] | Structure (SMILES) | EC50 (A549 cells; Homo sapiens) [µM] |
| --- | --- | --- | --- | --- |
| < 0.1 | < 0.1 | – | COc1ncccc1CNC(=O)c1cn(CC(F)CCc2nnc(NC(=O)Cc3cc(OC(F)(F)F)ccc3F)s2)nn1 (stereo not drawn) [Example 223, 1-(2-fluoro-4-(5-(2-(2-fluoro-5-(trifluoromethoxy)phenyl)acetamido)-1,3,4-thiadiazol-2-yl)butyl)-N-((2-methoxypyridin-3-yl)methyl)-1H-1,2,3-triazole-4-carboxamide] | – |
| 0.1 to 0.5 | 0.1 to 0.5 | – | COC(=O)Nc1ccc(CCCCn2cc(C(=O)NCc3cc(C(F)(F)F)ccn3)nn2)nn1 [Example 224, methyl (6-(4-(4-(((4-(trifluoromethyl)pyridin-2-yl)methyl)carbamoyl)-1H-1,2,3-triazol-1-yl)butyl)pyridazin-3-yl)carbamate] | – |
| < 0.1 | < 0.1 | – | CNC(=O)c1cn(CC(F)CCc2nnc(NC(=O)Cc3cc(C(F)(F)F)ccn3)s2)nn1 (stereo not drawn) [Example 226, 1-(2-fluoro-4-(5-(2-(4-(trifluoromethyl)pyridin-2-yl)acetamido)-1,3,4-thiadiazol-2-yl)butyl)-N-methyl-1H-1,2,3-triazole-4-carboxamide] | – |
| < 0.1 | < 0.1 | – | CNC(=O)c1nnc(CCCCc2ccc(NC(=O)Cc3cc(C(F)(F)F)ccn3)nn2)s1 [Example 229, N-methyl-5-(4-(6-(2-(4-(trifluoromethyl)pyridin-2-yl)acetamido)pyridazin-3-yl)butyl)-1,3,4-thiadiazole-2-carboxamide] | – |
| 0.1 to 0.5 | < 0.1 | – | O=C(NCc1ccccn1)c1cn(CC(F)CCc2nnc(C(=O)NCc3cc(C(F)(F)F)ccn3)s2)nn1 (stereo not drawn) [Example 234, 5-(3-fluoro-4-(4-((pyridin-2-ylmethyl)carbamoyl)-1H-1,2,3-triazol-1-yl)butyl)-N-((4-(trifluoromethyl)pyridin-2-yl)methyl)-1,3,4-thiadiazole-2-carboxamide] | – |
| 0.1 to 0.5 | < 0.1 | – | O=C(NCc1cc(C(F)(F)F)ccn1)c1cn(CC(F)CCc2nnc(C(=O)NCc3ccccn3)s2)nn1 (stereo not drawn) [Example 235, 5-(3-fluoro-4-(4-(((4-(trifluoromethyl)pyridin-2-yl)methyl)carbamoyl)-1H-1,2,3-triazol-1-yl)butyl)-N-(pyridin-2-ylmethyl)-1,3,4-thiadiazole-2-carboxamide] | – |
| < 0.1 | < 0.1 | – | CC(=O)Nc1ccc(CCC(F)Cn2cc(C(=O)NCc3cc(C(F)(F)F)ccn3)nn2)nn1 (stereo not drawn) [Example 236, 1-(4-(6-acetamidopyridazin-3-yl)-2-fluorobutyl)-N-((4-(trifluoromethyl)pyridin-2-yl)methyl)-1H-1,2,3-triazole-4-carboxamide] | – |
| < 0.1 | < 0.1 | – | CNC(=O)c1cn(CC(F)CCc2ccc(NC(=O)CN3CCN(c4cccc(OC(F)(F)F)c4)CC3=O)nn2)nn1 (stereo not drawn) [Example 241, 1-(2-fluoro-4-(6-(2-(2-oxo-4-(3-(trifluoromethoxy)phenyl)piperazin-1-yl)acetamido)pyridazin-3-yl)butyl)-N-methyl-1H-1,2,3-triazole-4-carboxamide] | – |
| < 0.1 | < 0.1 | – | CNC(=O)c1cn(CC(F)CCc2ccc(NC(=O)Cc3ccccc3)nn2)nn1 (stereo not drawn) [Example 244, 1-(2-fluoro-4-(6-(2-phenylacetamido)pyridazin-3-yl)butyl)-N-methyl-1H-1,2,3-triazole-4-carboxamide] | – |
| < 0.1 | < 0.1 | – | CNC(=O)c1cn(CC(F)CCc2ccc(NC(=O)Cc3cc(C4CCOCC4)ccn3)nn2)nn1 (stereo not drawn) [Example 253, 1-(2-fluoro-4-(6-(2-(4-(tetrahydro-2H-pyran-4-yl)pyridin-2-yl)acetamido)pyridazin-3-yl)butyl)-N-methyl-1H-1,2,3-triazole-4-carboxamide] | – |
| < 0.1 | < 0.1 | – | CNC(=O)c1cn(CCCCc2ccc(NC(=O)Cc3cc(C(C)C(F)(F)F)ccn3)nn2)nn1 (stereo not drawn) [Example 258, N-methyl-1-(4-(6-(2-(4-(1,1,1-trifluoropropan-2-yl)pyridin-2-yl)acetamido)pyridazin-3-yl)butyl)-1H-1,2,3-triazole-4-carboxamide] | – |

— patent US10344025B2, “GLS1 inhibitors for treating disease” (Board of Regents, The University of Texas System, priority 2014, dated 2019)
